Experimental data published in patent publication US8685963B2, “Compounds that inhibit NFκB and BACE1 activity” (The Trustees of Columbia University in the city of New York, priority 2008, dated 2014).
“Also recorded” adds a separate entry of the source.

Experiments:
BACE1 = molecular target: T1, BACE1 (Homo sapiens, UniProt P56817); experiment: cell-based BACE1 assay (sAPPβ modified ELISA) in SY5Y-BACEGFP-SEAPAPPwt cells; settings: for IC50: 8-point dose-response (30-0.01 μM)
T1 construct: GFP; expressed in transfected cells; host or cells: SY5Y cells (SY5Y-BACEGFP-SEAPAPPwt), stably transfected
T1 sequence (P56817 46-501): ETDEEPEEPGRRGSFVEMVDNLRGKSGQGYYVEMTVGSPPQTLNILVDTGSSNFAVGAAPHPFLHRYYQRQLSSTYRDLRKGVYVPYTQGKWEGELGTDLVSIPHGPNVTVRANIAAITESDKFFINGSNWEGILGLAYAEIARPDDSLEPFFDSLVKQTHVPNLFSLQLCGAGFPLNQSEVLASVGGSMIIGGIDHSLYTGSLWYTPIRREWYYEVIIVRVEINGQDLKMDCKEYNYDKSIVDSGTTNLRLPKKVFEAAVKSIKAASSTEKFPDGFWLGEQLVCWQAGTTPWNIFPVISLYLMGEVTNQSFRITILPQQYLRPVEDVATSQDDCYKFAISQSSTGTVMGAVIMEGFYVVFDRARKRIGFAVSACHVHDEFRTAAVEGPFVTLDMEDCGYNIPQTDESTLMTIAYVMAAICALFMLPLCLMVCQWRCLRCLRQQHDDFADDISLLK
Procedure: FIG. 8 depicts a sAPPβ assay utilized to identify inhibitors of BACE1. The assay utilizes SY5Y cells stably overexpressing BACE-GFP and SEAP-APPwt. Cells are incubated with a candidate compound for 6 hours prior to harvesting media. BACE1-mediated cleavage of APP results in the release of sAPPβ into the media. α-secretase, a competing enzyme that is non-amyloidogenic, also cleaves APP to release […]. Using an sAPPβ-specific antibody (sβwt), SEAP-sAPPβ is specifically captured in a modified ELISA assay. Detection is achieved by addition of the fluorescent alkaline phosphatase substrate, 4-methylumbelliferyl phosphate (4-MUP).
FIG. 10A-B depicts SAR studies of N-(quinolin-8-yl)benzenesulfonamides. 28 full and partial hits, shown in (A) for compounds 1-26 and (B) for compounds 27 and 28, from the targeted screen of N-(quinolin-8-yl)benzenesulfonamides were characterized in SY5Y-BACEGFP-SEAPAPPwt cells using the cell-based BACE1 assay. All compounds were tested at 8 concentrations (30, 10, 3, 1, 0.3, 0.1, 0.03, and 0.01 μM), and data points were analyzed with Origin software and fitted using a logistic model for IC50 determination.
A cell-based modified ELISA assay for measuring sAPPβ, the secreted ectodomain of β-amyloid precursor protein (APP) following […] (BACE1) cleavage, was used to identify a class of compounds that interfered with the first step of sAPPβ generation. This assay has been described in International Application PCT/US2007/015938 (Published as International Publication No. WO 08/008,463), which is herein incorporated in its entirety for all purposes.
The SY5Y-BACEGFP-SEAPAPPwt cell based assay was developed to discover novel small molecule modulators of BACE1 activity. SY5Y cells were stably transfected with GFP-tagged BACE1 (BACE-GFP) and secreted alkaline phosphatase (SEAP)-tagged wildtype APP (SEAP-APPwt). BACE1 cleavage of SEAP-APPwt results in secretion into the media of SEAP-tagged sAPPβ, which is collected and specifically captured using an sAPPβ cleavage site-specific antibody (sβwt). After washing, the fluorescent alkaline phosphatase substrate 4-methylumbelliferyl phosphate (4-MUP) is used to detect the captured SEAP-sAPPβ (FIG. 8).
176 compounds were tested in the primary screen (FIG. 9). Briefly, each compound (10 mM stock in DMSO) was diluted 1:25 in DMSO and loaded onto 96-well plates to generate a 400 μM stock plate. 1 μl of each compound was then diluted 1:200 with cell culture media (0.5% DMSO concentration) in two separate 96-well plates for a final screening concentration of 2 μM. 150 μl of media containing compound was then transferred onto SY5Y-BACEGFP-SEAPAPPwt cells in 96-well format, and the BACE1 assay was performed as described previously. The primary screen was conducted in duplicate. A parallel screen was conducted at 10 μM concentration, also in duplicate. […] Percent inhibition of the fluorescence signal was calculated as 100×[DMSO control−compound]/DMSO control The majority of data points were clustered between −25% and 25% inhibition of sAPPβ fluorescence signal (FIG. 9A). The Z′ factors for all 4 96-well plates used in the primary screen were above 0.7 (data not shown). The threshold for hit selection was set at 3 standard deviations, or 59.76% inhibition, yielding 6 small molecule hits and a hit rate of 3.41% (FIG. 9B).
28 full and partial hits were characterized in 8-point dose-response experiments for IC50 determination in SY5Y-BACEGFP-SEAPAPPwt cells (FIG. 10).

Aβ40 = Aβ40 / sAPPβ levels in Lenti-APPsw infected primary cortical neurons; assay type: cell-based, mouse
Procedure: FIG. 11A-B depicts Lentiviral-mediated transduction of APPsw in primary neurons. Primary cortical neurons were harvested from wild-type P0 mice and cultured according to established protocols. Lentivirus harboring human Swedish mutant APP (Lenti-APPsw) was packaged using ViraPower Lentiviral Packaging mix (Invitrogen) according to the manufacturer's protocol. DIV-14 neurons were incubated for 24 hours with primary culture media containing the indicated volume (in μl) of virus (LV-1 and LV-2 denote 2 separate batches of virus, 0 denotes no virus was used). After infection, neurons were incubated for 72 hours with primary culture media. Media was collected for Aβ40 ELISA (Bio Source), and cell lysates were probed with APPCT antibody to visualize transduced full-length APP. (A) Bar graph depicting results; (B) Assay results.
FIG. 13A-B depicts the effect of CU-264 on Aβ expressing primary cortical neuron cultures from wild-type mice transformed with lentivirus harboring APPsw. […] At 10 μm, CU-264 increased Aβ levels. (A) Bar graph depicting results; (B) Assay results.
The previously described hit was further analyzed in physiologically relevant systems, e.g. primary neurons and Alzheimer's model mice. Two complementary neuronal cell systems were employed to test the effects of candidate compounds on various aspects of APP processing: cultured mouse cortical neurons (postnatal day 0) infected with recombinant lentivirus carrying human APPsw (Lenti-APPsw; FIG. 11); and cultured cortical neurons prepared from Tg2576 mice (carrying human APPsw transgene under the control of the PrP promoter). Lenti-APPsw infected cortical neurons can be prepared in a relatively large scale, but suffer from variability in lentiviral infection efficiency, resulting in variable levels of APP expression. In contrast, cortical neurons derived from Tg2576 provide constant APP expression. However, neuronal yield is generally much lower, since only half the pups will contain the transgene when heterozygote crossbreeds were conducted. Therefore, Initial characterization experiments were performed using cortical neurons infected with Lenti-APPsw.
Lenti-APPsw infected primary cortical neurons were used for the initial round of physiological experiments. Primary cortical neurons were harvested from wild-type P0 pups using established protocols.
The Lenti-APPsw vector was co-transfected into HEK293 T cells with ViraPower packaging mix (Invitrogen) to generate the lentivirus. Lentiviral-mediated transduction of APPsw in primary neurons was performed by adding neuron primary culture media containing the lentiviral particles to wild-type DIV-14 primary neurons (FIG. 11). After 24 hours, neurons were incubated with media for 72 hours prior to collecting for Aβ40 measurement. Two batches of virus (LV-1 and LV-2) were tested, showing that there is batch-to-batch variation in the viral titer.
Using this experimental paradigm, CU-264 was tested at 10 and 2 μM concentrations to examine the sAPPβ- and Aβ-lowering activity of the compound. The protocol was modified slightly to allow for 24-hour compound treatment. DIV-14 wild-type primary neurons (FIG. 12) cultured on 6-well plates were incubated for 24 hours with primary culture media containing lentiviral particles. After infection, fresh media was mixed in a 1:1 ratio with conditioned media collected prior to lentiviral infection, and applied to the cells for 48 hours to allow for APP expression. […]

Compound	IC50 (BACE1) [µM]	other results
O=S(=O)(Nc1cccc2cccnc12)c1cccc2ccccc12 [CU-131]	6.46	
O=S(=O)(Nc1cc(Br)cc2cccnc12)c1cccc2ccccc12 [CU-138]	9.51	
O=S(=O)(Nc1cccc2cccnc12)c1cccs1 [CU-150]	8.03	
COc1ccc(S(=O)(=O)Nc2cccc3cccnc23)cc1 [CU-151]	5.92	
O=[N+]([O-])c1ccc(S(=O)(=O)Nc2cccc3cccnc23)cc1 [CU-152]	4.63	
O=[N+]([O-])c1ccccc1S(=O)(=O)Nc1cccc2cccnc12 [CU-153]	1.58	
O=S(=O)(Nc1cccc2cccnc12)c1ccc2ccccc2c1 [CU-155]	2.2	
O=S(=O)(Nc1cccc2cccnc12)c1cccc2cccnc12 [CU-156]	4.23	
O=S(=O)(Nc1cc(Br)cc2cccnc12)c1ccccc1 [CU-166]	13.4	
Cc1ccc(S(=O)(=O)Nc2cc(Br)cc3cccnc23)cc1 [CU-167]	1.09	
O=S(=O)(Nc1cc(Br)cc2cccnc12)c1cccc2cccnc12 [CU-168]	17.2	
Cc1ccc(S(=O)(=O)Nc2cccc3ccc(C)nc23)cc1 [CU-225]	3.79	
Nc1ccccc1S(=O)(=O)Nc1cccc2cccnc12 [CU-242]	3.82	
COc1ccc(S(=O)(=O)Nc2cccc3cccnc23)c([N+](=O)[O-])c1 [CU-261]	1.92	
O=S1(=O)Nc2c(ccc3cccnc23)-c2cc(C(F)(F)F)ccc21 [CU-262]	0.82	potency for sAPPβ reduction (in words) (BACE1): sub-micromolar
Nc1cc(C(F)(F)F)ccc1S(=O)(=O)Nc1cccc2cccnc12 [CU-264]	0.53	Aβ40 levels in more physiological assay (Aβ40): raising; sAPPβ levels in more physiological assay (Aβ40): raising; Aβ40 levels in primary neurons (Aβ40; 2 μM CU-264, 24-hour treatment): does not reduce; Aβ levels in primary neurons (Aβ40; 10 μM, 24-hour treatment): increased; Aβ40 in primary neurons (Aβ40; tested at 10 and 2 μM, 24-hour treatment): did not reduce; potency for sAPPβ reduction (in words) (BACE1): most potent analog; also recorded: sub-micromolar; also recorded: most potent compound
O=[N+]([O-])c1cc(C(F)(F)F)ccc1S(=O)(=O)Nc1cccc2cccnc12 [CU-265]	2.95	
COc1cc(NS(=O)(=O)c2ccccc2[N+](=O)[O-])c2ncccc2c1 [CU-268]	8.11	
COc1ccc(S(=O)(=O)Nc2cccc3cccnc23)c(N)c1 [CU-271]	2.74	
Cc1ccc2cccc(NS(=O)(=O)c3ccccc3[N+](=O)[O-])c2n1 [CU-273]	12.4	
Cc1ccc2cccc(NS(=O)(=O)c3ccccc3N)c2n1 [CU-274]	11.1	
COc1ccc(S(=O)(=O)Nc2cccc3ccc(C)nc23)c(N)c1 [CU-278]	11.5	
Cc1ccc2cccc(NS(=O)(=O)c3ccc(C(F)(F)F)cc3[N+](=O)[O-])c2n1 [CU-280]	5.51	
Cc1ccc2cccc(NS(=O)(=O)c3ccc(C(F)(F)F)cc3N)c2n1 [CU-281]	3.28	
Cc1ccc2ccc3c(c2n1)NS(=O)(=O)c1ccc(C(F)(F)F)cc1-3 [CU-282]	1.11	
COc1cc(NS(=O)(=O)c2ccc3ccccc3c2)c2ncccc2c1 [CU-294]	3.75	
COc1cc(NS(=O)(=O)c2cccc3ccccc23)c2ncccc2c1 [CU-295]	3.63	
